The source of these data is ChEMBL document CHEMBL1146743, “Three new cyclostellettamines, which inhibit histone deacetylase, from a marine sponge of the genus Xestospongia” (Bioorg Med Chem Lett, 2004).

As usually defined, the IC50 is the concentration needed to halve the response being measured. A lower IC50 goes with higher potency.

Experiment [1] relates to 3Y1 cell line. Put plainly: Inhibitory activity against rat fibroblast (3Y1) cell line. Format: functional, cell-based.
Experiment [2] concerns HeLa. Briefly: Cytotoxicity against human cervix carcinoma (HeLa) cell line. It is filed as functional, cell-based.
Experiment [3] relates to P388. Briefly: Cytotoxicity against mouse leukemia (P388) cell line. It is filed as functional, cell-based.
Experiment [4] deals with Histone deacetylase. Briefly: Inhibitory activity against histone deacetylase (HDAC). Format: protein assay, Homo sapiens.

With `C1=C/CCC[n+]2cccc(c2)CCCCCCCCCCCC[n+]2cccc(c2)CCCCCC/1.O=C([O-])C(F)(F)F.O=C([O-])C(F)(F)F`, the IC50 was 11000 nM in experiment [1], 2800 nM in experiment [2], 2700 nM in experiment [3] and 80000 nM in experiment [4].

`C1=C/CCCCCC[n+]2cccc(c2)CCCCCCCCCCCCC[n+]2cccc(c2)CCCCCC/1.O=C([O-])C(F)(F)F.O=C([O-])C(F)(F)F`: the IC50 in experiment [1] is 3200 nM; in experiment [2], 1800 nM; in experiment [3], 1300 nM; in experiment [4], 30000 nM.

`C1=C/CCCC[n+]2cccc(c2)CCCCCCCCCCCC[n+]2cccc(c2)CCCCCC/1.O=C([O-])C(F)(F)F.O=C([O-])C(F)(F)F`: the IC50 in experiment [1] is 7200 nM; in experiment [2], 1800 nM; in experiment [3], 2100 nM; in experiment [4] it was 61000 nM.

Turning to `C1=C/CCCCCC[n+]2cccc(c2)CCCCCCCCCCCC[n+]2cccc(c2)CCCCCC/1.O=C([O-])C(F)(F)F.O=C([O-])C(F)(F)F`, the IC50 in experiment [1] was found to be 4300 nM; in experiment [2] it was 600 nM; in experiment [3] it was 1300 nM; in experiment [4] it was 17000 nM.
